From US12285408B2, “Methods and compositions for the treatment of snake bite” (priority 2021, dated 2025)

What was measured:
[1] = tested on: Echis ocellatus venom; assay: Murine preincubation (co-incubation) model of venom lethality, intravenous, with TAT ELISA; assay type: in vivo, CD-1 mice; details: 45 μg venom (2.5×LD50) preincubated 30 min at 37° C. with 60 μg of each drug, i.v., 6 h monitoring, n=5
Procedure: The intravenous median lethal dose (venom LD50) for E. ocellatus (Nigeria) of 17.85 μg per mouse was previously determined. Mice were challenged with 45 μg of E. ocellatus venom (2.5×the intravenous LD50 dose) in a refined version of the World Health Organization-recommended antivenom efficacy experiments. Groups of five male 18-22 g CD-1 mice (Charles River, UK) received experimental doses that consisted of either (a) venom only (2.5×LD50 dose), (b) venom and drug (60 μg) or (c) drug only. All experimental doses were prepared to a volume of 200 μl in PBS and incubated at 37° C. for 30 mins prior to their intravenous injection via the tail vein. Animals were monitored for 6 hours and euthanized upon observation of humane endpoints (seizure, pulmonary distress, paralysis, hemorrhage). Deaths, time of death, and survivors were recorded; where “deaths/time of death” represents the implementation of euthanasia based on the defined humane endpoints.
The same murine preincubation model was used to assess the efficacy of distinct toxin family inhibiting drugs in comparison with a drug combination. […] All experimental doses were prepared to a volume of 200 μl in PBS and incubated at 37° C. for 30 min prior to their intravenous injection via the tail vein. Animals were monitored for 6 h, and euthanized via rising concentrations of CO2 upon observation of previously defined humane end points that are predicators of lethality (e.g., seizure, pulmonary distress, paralysis, hemorrhage). Deaths, time of death, and survivors were recorded; where death/time of death represents the implementation of euthanasia based on defined humane end points.
Strong drug hits, those defined as inhibiting >80% of the venom activity in the previously described in vitro metalloproteinase assay (FIG. 1), were next progressed into murine preclinical efficacy studies, to assess their ability to prevent venom-induced lethality in vivo. We used an established in vivo model of envenoming to test the efficacy of the seven snake venom metalloproteinase toxin inhibitors identified. This model consisted of the preincubation of the test drug with venom, followed by intravenous injection of the mixture into groups of five male CD-1 mice (18-20 g) via the tail vein followed by 6 hour monitoring, and is based on principles laid out in the gold standard method of preclinical efficacy recommended by the World Health Organization.
We used an established in vivo model of envenoming^41,42 to test the efficacy of small molecule toxin inhibitors. […]

[2] = in vivo; cited from earlier work
[3] = tested on: normal plasma clotting; assay: Normal plasma clotting in the absence of venom; assay type: biochemical, bovine; details: 150 μM, no venom
Procedure: FIG. 14. The serine protease-inhibitor nafamostat inhibits normal plasma clotting. Comparison of normal clotting (i.e. in the absence of venom and inhibitors via recalcification) and clotting in the presence of the generic serine protease-inhibitor nafamostat. […] The anticoagulant effect of this drug is expressed as a percentage of the plasma-only activity.
(§1) We used a previously developed plasma clotting assay^35 to measure venom-induced coagulation. Briefly, 100 ng of each venom was incubated at 37° C. for 30 min in the presence or absence of inhibitors (150 μM to 150 nM final concentrations). The final reaction consisted of 10 μl venom±inhibitors in PBS, 20 μl 20 mM CaCl2), and 20 μl citrated bovine plasma (VWR). The samples were pipetted in triplicate into 384-well plates, and absorbance monitored at 595 nm for 2 h at 25° C. on an Omega FLUOstar instrument. We calculated the maximum clotting velocity of each of the curves as per clot waveform analysis^67, by calculating the maximum of the first derivative. The means of at least three independent experimental runs for each condition were plotted at each inhibitor concentration with SEMs.

[4] = tested on: SVSP activity of viper venoms; assay: Chromogenic SVSP (serine protease) assay; assay type: biochemical
Excerpt: FIG. 13. Nafamostat inhibits the in vitro serine protease activities of several geographically distinct viper venoms. (A) The serine protease (SVSP) activity of five viper venoms expressed as the rate (ΔAbs/time/μg venom) of substrate consumption determined by kinetic chromogenic assay. The data represents triplicate independent repeats with SEMs, where each technical repeat represents the mean of n≥2 technical replicates. EOC, E. ocellatus; ECAR, E. carinatus; BAS, Bothrops asper, BAR, Bitis arietans; DRUS, Daboia russelii. (B) Neutralization of SVSP venom activity by the serine protease-inhibitor nafamostat. The data is expressed as rates (ΔAbs/time/μg venom) and represents triplicate independent repeats with SEMs, where each technical repeat represents the mean of n≥2 technical replicates. […] Note the different y-axis scales.
SVSP activity was measured using a chromogenic substrate (S-2288, Cambridge Bioscience). […] The samples were pipetted in triplicate into 384-well plates (Greiner) and absorbance at 405 nm was monitored kinetically for ˜30 min on an Omega FLUOstar instrument (BMG Labtech). Given the linearity of the resulting slopes, negative control readings (PBS) were subtracted from each reading and the rate of substrate consumption calculated by measuring the slope between 0 and 5 mins. […]

[5] = tested on: SVMP activity of E. ocellatus, E. carinatus, B. asper and B. arietans venoms; assay: In vitro kinetic fluorogenic SVMP assay (Study 2); assay type: biochemical
Excerpt: FIG. 10. […] (A) SVMP activities of the five viper venoms quantified by fluorogenic assay. The data presented represent mean measurements and SEMs of area under the curves of fluorescent arbitrary units taken from three independent experimental runs. EOC, E. ocellatus; ECAR, E. carinatus; BAS, Bothrops asper, BAR, Bitis arietans; DRUS, Daboia russelii. (B) The effectiveness of metal chelators and peptidomimetic hydroxamate inhibitors at inhibiting the SVMP activity of the various viper venoms. Drug concentrations from 150 μM to 150 nM (highest to lowest dose tested) are presented. The data is expressed as percentage of the venom-only sample (100%, top dashed line). The negative control is presented as an interval (bottom dashed lines) and represents the values recorded in the PBS-only samples (expressed as percentage of venom activity), where the highest and the lowest values in each set of independent experiments are depicted. […] All data represent triplicate independent repeats with SEMs, where each technical repeat represents the mean of n≥2 technical replicates.
We used an in vitro kinetic fluorogenic assay^28 to assess the SVMP bioactivity of each venom and its inhibition by varying concentrations of the four SVMP-inhibitors.
The SVMP assay measuring metalloproteinase activity and the plasma assay measuring coagulation in the presence or absence of venoms and inhibitors were performed as previously described^28. The SVMP assay kinetically measured cleavage of a quenched fluorogenic substrate (ES010, R&D Biosystems) by venom in the presence or absence of inhibitors.
Briefly, 10 μl of the substrate (supplied as a 6.2 mM stock) was used per 5 ml reaction buffer (150 mM NaCl, 50 mM Tris-CI pH 7.5). Reactions consisted of 10 μl of venom±inhibitors in PBS and 90 μl of substrate. Venoms were used at 1 μg/reaction and final inhibitor concentrations ranged from 150 μM to 150 nM. Samples were preincubated for 30 min at 37° C. and pipetted in triplicate into 384-well plates (Greiner). Thereafter, data was collected on an Omega FLUOstar (BMG Labtech) instrument at an excitation wavelength of 320 nm and emission wavelength of 405 nm at 25° C. for 1 h. The areas under the curve (AUCs) in the 0-40 min interval were calculated for each sample using MARS data analysis software v3.31 (BMG Labtech); this time point was chosen as the time where all fluorescence curves had reached a plateau (maximum fluorescence). For comparing venom-only samples, the means of at least three independent experimental runs for each condition, expressed as AUCs (n≥3), were plotted at each inhibitor concentration with standard error of the mean (SEM). To determine inhibitor efficacy, the AUCs for each of the samples that consisted of venom+inhibitors were transformed and expressed as percentages of the venom-only sample (where the venom was 100%). The negative control (PBS only) was also expressed relative to the venom, and the variation in background was presented as an interval delineated by the lowest and highest values in the PBS-only samples across concentrations and inhibitors for a specific venom. […] However, only the latter two concentrations were sufficiently depleted of DMSO for viable use in the assay.

[6] = tested on: procoagulant activities of viper venoms (E. ocellatus, E. carinatus, B. asper, D. russelii); assay: Plasma clotting assay, neutralization of procoagulant venom activity; assay type: biochemical; details: range across all venoms, 100 ng venom, bovine plasma; read-out: IC50, inhibition of procoagulant activity
Excerpt: FIG. 11. SVMP-inhibitors neutralize the in vitro procoagulant activities of several geographically distinct viper venoms. […] The data presented represents the maximum clotting velocity, calculated as the maximum of the first derivative of each clotting curve, from triplicate independent repeat experiments with SEMs, where each technical repeat represents the mean of n≥2 technical replicates. EOC, E. ocellatus; ECAR, E. carinatus; BAS, Bothrops asper, BAR, Bitis arietans; DRUS, Daboia russelii. (B) Neutralization of procoagulant venom activity by four SVMP-inhibitors across four drug concentrations (150 μM to 150 nM). The data is expressed as the maximum clotting velocity at each dose. The negative (PBS) and positive (venom-only) controls are presented as intervals (bottom dashed and top dashed lines, respectively), with the latter representing the mean maximum clotting velocity in these samples±SEM. The data represent triplicate independent repeats with SEMs, where each technical repeat represents the mean of n≥2 technical replicates. Note the different y-axis scales.
Since SVMPs are key toxins associated with causing coagulopathy, we next investigated whether the same peptidomimetic and metal chelating inhibitors could also neutralize the procoagulant bioactivities of viper venoms. To do so, we used a validated kinetic absorbance-based assay monitoring plasma clotting^35 in the presence or absence of venoms and inhibitors (FIG. 11).
as §1

Row | Compound | survival / protection against venom-induced lethality [1] | half-life [2] | effect on normal plasma clotting [3] | inhibition of SVSP activity ([4]; highest doses 150 and 15 μM, irrespective of venom) | IC50 ([4]; range across venoms, 1 μg venom/reaction, read-out: IC50s, inhibition of SVSP activity) | lowest concentration effective / required to fully inhibit SVMP activities ([5]; concentrations tested 150 μM to 150 nM) | IC50 ([5]; range across venoms, 1 μg venom/reaction, read-out: IC50s, inhibition of SVMP activity) | IC50 [6]
1 | N=C(N)c1ccc2cc(OC(=O)c3ccc(N=C(N)N)cc3)ccc2c1 [nafamostat] | no evident efficacy | ~8 min | dramatically inhibits plasma coagulation | completely inhibiting SVSP activity | 120 to 1070 nM |  |  | 
2 | OCC(S)CS (centres unmarked) [dimercaprol, 2,3-dimercapto-1-propanol] |  |  |  |  |  | 1.5 µM | 20 to 400 nM | 150 to 3700 nM
